Values of other authors, collected in patent US20010031747A1, “Progestin therapy for maintaining amenorrhea” (COLUMBIA LABORATORIES (BERMUDA) LIMITED, priority 1997, published 2001).
Read-outs that look alike come from different tables or passages of the source.

How the values were obtained:
[1] = sublingual
[2] = nasal
[3] = intramuscular; 100 mg doses
[4] = subdermal, six 100 mg pellets
[5] = tested on: endometrium; details: topical application to the breast

In the case of `CC(=O)[C@H]1CC[C@H]2[C@@H]3CCC4=CC(=O)CC[C@]4(C)[C@H]3CC[C@]12C` [progesterone], the “Time to return to basal levels” value [1] is given as “twenty-four”, the Mean maximum concentration ([2]; 20 mg dose) is given as 2.1 ng/mL and the “Time of mean maximum concentration” value ([2]; 20 mg dose) is given as “approximately 30 minutes”. For the same compound, the Mean maximum concentration ([2]; 30 mg dose) was 4.1 ng/mL, the “Time of mean maximum concentration” value ([2]; 30 mg dose) was about 240 min and the “Time to achieve serum concentrations” value [3] was “two to eight”. The “Mean peak progesterone level” value ([4]; six months after implantation) was 1.9 ng/mL, the Peak progesterone level ([4]; within the first week after insertion) was 4.4 ng/mL and the Endometrial effects [5] was “no significant endometrial effects”. For the same compound, the “Increase over baseline serum levels” value (vaginal suspension 50 mg/ml (carboxymethyl cellulose, methyl cellulose), after 15 minutes) was 10 fold, the “Peak increase over baseline levels” value (vaginal suspension 50 mg/ml, at peak) was “thirty- to forty” and the “Serum level after decline” value (vaginal suspension 50 mg/ml, declining over the next ten hours) was 3.68 ng/mL. The Peak serum level (vaginal suspension 50 mg/ml, maintained over the next seven hours) was 12.25 ng/mL.
